Data: the NIST ThermoML archive (doi:10.1021/je500804j)

Test: mn = molality of the nth substance listed, in mol/kg
Conditions: 101 kPa, Liquid, Alternating current cell with electrodes

CCCCCCCC[N+](C)(C)CCCCCC[N+](C)(C)CCCCCCCC.[Br-].[Br-] + O
Conditions | electrical conductivity [S/m]
303.15 K, m1 = 0.1147 | 1.235
303.15 K, m1 = 0.1161 | 1.242
308.15 K, m1 = 0.00368 | 0.09215
308.15 K, m1 = 0.00726 | 0.1725
308.15 K, m1 = 0.01076 | 0.2453
308.15 K, m1 = 0.01417 | 0.3115
308.15 K, m1 = 0.0175 | 0.3725
308.15 K, m1 = 0.02076 | 0.4289
308.15 K, m1 = 0.02394 | 0.4827
308.15 K, m1 = 0.02704 | 0.5324
308.15 K, m1 = 0.03008 | 0.5804
308.15 K, m1 = 0.03304 | 0.6259
308.15 K, m1 = 0.03595 | 0.6694
308.15 K, m1 = 0.03878 | 0.7099
308.15 K, m1 = 0.04156 | 0.7496
308.15 K, m1 = 0.04428 | 0.7852
308.15 K, m1 = 0.04693 | 0.8231
308.15 K, m1 = 0.05209 | 0.8882
308.15 K, m1 = 0.05458 | 0.9163
308.15 K, m1 = 0.05703 | 0.9472
308.15 K, m1 = 0.05942 | 0.9728
308.15 K, m1 = 0.06177 | 1.001
308.15 K, m1 = 0.06407 | 1.027
308.15 K, m1 = 0.06633 | 1.05
308.15 K, m1 = 0.06854 | 1.072
308.15 K, m1 = 0.07072 | 1.092
308.15 K, m1 = 0.07284 | 1.111
308.15 K, m1 = 0.07493 | 1.128
308.15 K, m1 = 0.07698 | 1.149
308.15 K, m1 = 0.079 | 1.164
308.15 K, m1 = 0.08097 | 1.182
308.15 K, m1 = 0.08291 | 1.195
308.15 K, m1 = 0.08482 | 1.211
308.15 K, m1 = 0.08669 | 1.225
308.15 K, m1 = 0.08852 | 1.238
308.15 K, m1 = 0.09033 | 1.251
308.15 K, m1 = 0.0921 | 1.264
308.15 K, m1 = 0.09385 | 1.276
308.15 K, m1 = 0.09556 | 1.286
308.15 K, m1 = 0.09725 | 1.298
308.15 K, m1 = 0.0989 | 1.308
308.15 K, m1 = 0.1005 | 1.319
308.15 K, m1 = 0.1021 | 1.326
308.15 K, m1 = 0.1037 | 1.337
308.15 K, m1 = 0.1053 | 1.346
308.15 K, m1 = 0.1068 | 1.354
308.15 K, m1 = 0.1083 | 1.363
308.15 K, m1 = 0.1098 | 1.37
308.15 K, m1 = 0.1112 | 1.38
308.15 K, m1 = 0.1127 | 1.385
308.15 K, m1 = 0.1141 | 1.392
313.15 K, m1 = 0.00383 | 0.1036
313.15 K, m1 = 0.00755 | 0.1854
313.15 K, m1 = 0.01119 | 0.2548
313.15 K, m1 = 0.01473 | 0.3279
313.15 K, m1 = 0.01819 | 0.3993
313.15 K, m1 = 0.02156 | 0.4651
313.15 K, m1 = 0.02485 | 0.5281
313.15 K, m1 = 0.02806 | 0.5866
313.15 K, m1 = 0.0312 | 0.6397
313.15 K, m1 = 0.03426 | 0.6934
313.15 K, m1 = 0.03725 | 0.7428
313.15 K, m1 = 0.04018 | 0.7886
313.15 K, m1 = 0.04304 | 0.8328
313.15 K, m1 = 0.04583 | 0.8749
313.15 K, m1 = 0.04857 | 0.9139
313.15 K, m1 = 0.05386 | 0.9883
313.15 K, m1 = 0.05642 | 1.024
313.15 K, m1 = 0.05893 | 1.055
313.15 K, m1 = 0.06138 | 1.086
313.15 K, m1 = 0.06379 | 1.114
313.15 K, m1 = 0.06615 | 1.139
313.15 K, m1 = 0.06845 | 1.165
313.15 K, m1 = 0.07072 | 1.19
313.15 K, m1 = 0.07293 | 1.212
313.15 K, m1 = 0.07511 | 1.236
313.15 K, m1 = 0.07724 | 1.257
313.15 K, m1 = 0.07933 | 1.276
313.15 K, m1 = 0.08138 | 1.296
313.15 K, m1 = 0.08339 | 1.314
313.15 K, m1 = 0.08537 | 1.332
313.15 K, m1 = 0.0873 | 1.348
313.15 K, m1 = 0.08921 | 1.364
313.15 K, m1 = 0.09107 | 1.378
313.15 K, m1 = 0.09291 | 1.392
313.15 K, m1 = 0.09471 | 1.406
313.15 K, m1 = 0.09648 | 1.418
313.15 K, m1 = 0.09822 | 1.432
313.15 K, m1 = 0.09993 | 1.444
313.15 K, m1 = 0.1016 | 1.457
313.15 K, m1 = 0.1032 | 1.467
313.15 K, m1 = 0.1049 | 1.476
313.15 K, m1 = 0.1065 | 1.487
313.15 K, m1 = 0.108 | 1.493
313.15 K, m1 = 0.1096 | 1.505
313.15 K, m1 = 0.1111 | 1.516
313.15 K, m1 = 0.1126 | 1.527
313.15 K, m1 = 0.1141 | 1.537
313.15 K, m1 = 0.1155 | 1.545
